Several values for one entry are separate records, joined by “and”; a condition that tells them apart may be missing. Equal values may be shown once. Read-outs that look alike come from different tables or passages of the source.
Tests used:
[1] = parameters: method as in earlier work; details: ref Zhang et al., 2018, Märtson et al., 2019, Vena et al., 2020, Risum et al., 2021, cited from earlier work
[2] = tested on: 11β-HSD2; parameters: method as in Beck et al., 2017, Beck et al., 2020a; details: ref Beck et al., 2017, Beck et al., 2020a; cited from earlier work
[3] = target: T1, CYP21A2 (Homo sapiens, UniProt P08686); assay: CYP21A2 activity assay, microsomes of transfected COS-1 cells; format: biochemical; details: cell-free; for IC50: progesterone 500 nM, 10 min
T1 construct: host or cells: COS-1 cells, transient transfection, microsomal fraction
T1 sequence (P08686 1-495): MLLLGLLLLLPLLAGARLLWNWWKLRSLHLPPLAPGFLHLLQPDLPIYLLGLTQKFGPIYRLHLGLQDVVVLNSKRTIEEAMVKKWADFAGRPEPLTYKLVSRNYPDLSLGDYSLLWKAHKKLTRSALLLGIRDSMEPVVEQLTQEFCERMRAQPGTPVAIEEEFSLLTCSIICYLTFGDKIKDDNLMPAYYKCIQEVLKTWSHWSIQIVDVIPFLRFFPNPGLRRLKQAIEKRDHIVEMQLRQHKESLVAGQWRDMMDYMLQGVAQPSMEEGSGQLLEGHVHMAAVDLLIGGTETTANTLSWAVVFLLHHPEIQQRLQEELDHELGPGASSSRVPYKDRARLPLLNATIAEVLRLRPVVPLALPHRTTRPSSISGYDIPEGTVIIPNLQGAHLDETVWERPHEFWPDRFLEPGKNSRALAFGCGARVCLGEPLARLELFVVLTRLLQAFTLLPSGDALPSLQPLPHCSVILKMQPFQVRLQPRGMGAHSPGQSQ
Description: Microsomes were prepared from COS-1 cells transiently transfected with plasmids for either CYP17A1 and POR for CYP17A1-hydroxylase assay (human CYP17A1 was available in our own plasmid collection after cloning into pcDNA3, POR was ordered from Genescript, Piscataway, USA, clone ID OHu25584C), CYP17A1, POR and cytochrome b5 for CYP17A1 17,20-lyase assay (cytochrome b5 was from Genescript, clone ID OHu09495D), POR and CYP21A2 (Genescript, CYP21A2 clone ID OHu18602D), or 3β-HSD2 (Genescript, clone ID OHu14034D). Transfection was performed using PEI and equal amounts of required plasmids with a total DNA amount of 8 µg per transfection of 3,000,000 cells. After overnight incubation, cells were washed with prewarmed PBS before adding ice-cold PBS. Cells were collected and centrifuged at 600 × g for 4 min at 4 °C, washed with ice cold PBS and centrifuged again. The pellet was resuspended in a resuspension buffer (20 mM Tris, pH 7.5, 50 mM KCl, 2 mM MgCl2, 0.25 M sucrose). Cells were disrupted with 30 S by a glass potter (2 cm^3) as described above. The homogenate was centrifuged for 20 min at 12,000 × g and 4 °C. Microsomes were pelleted by ultracentrifugation at 100,000 × g for 1 h at 4 °C. The pellet was resuspended in reaction buffer and the protein concentration determined using the Pierce Protein BCA kit as described above.
Microsomal protein (250 µg/mL) was preincubated with 1 mM NADPH and the compound of interest in reaction buffer for 10 min. The reaction was started by adding progesterone spiked with a radioactive tracer (final activity 0.025 mCi) to a final concentration of 500 nM. After 10 min of incubation at 37 °C the reaction was stopped by adding enzyme substrate and product at a final concentration of 1 mM in methanol, followed by shock-freezing in liquid nitrogen. Steroids were separated by thin layer chromatography on SIL G-25 UV254 TLC plates (Macherey-Nagel, Düren, Germany) using chloroform and ethyl acetate (1:4; v:v). Bands were excised and radiolabeled steroids analyzed by scintillation counting using […] Plus cocktail (Zinsser Analytic, Frankfurt am Main, Germany) and a β-counter (Packard, Connecticut, USA). Relative conversion was calculated based on total counts.

Row | IC50 [3] | inhibition of CYP21A2 ([3]; in words) | SMILES | serum trough concentration [1] [µg/mL] | IC50 [2] [µM] | serum trough concentration ([1]; molar value in brackets) [µM]
1 | > 10 µM |  | CC[C@@H]([C@H](C)O)n1ncn(-c2ccc(N3CCN(c4ccc(OC[C@@H]5CO[C@@](Cn6cncn6)(c6ccc(F)cc6F)C5)cc4)CC3)cc2)c1=O [posaconazole, Posaconazole] | > 0.7 | 0.46 | 
2 | 8.1 µM and 8.14 µM | weak inhibition | C[C@@H](c1nc(-c2ccc(C#N)cc2)cs1)[C@](O)(Cn1cncn1)c1cc(F)ccc1F [isavuconazole] | 4 | ~10 | ~1

Row | SMILES | IC50 [3] | inhibition of CYP21A2 ([3]; in words) | serum trough concentration [1] [µg/mL] | IC50 [2] [µM] | serum trough concentration ([1]; molar value in brackets) [µM]
3 | CCC(C)n1ncn(-c2ccc(N3CCN(c4ccc(OCC5COC(Cn6cncn6)(c6ccc(Cl)cc6Cl)O5)cc4)CC3)cc2)c1=O (centres unmarked) [itraconazole] | > 10 µM |  | 0.5 to 1 | 0.14 | 
